The values that follow come from patent US4868195A, “Novel enolamides, pharmaceutical compositions and methods of use thereof for activity as modulators of the arachidonic acid cascade” (Warner-Lambert Company, priority 1988, dated 1989).

This experiment deals with Human Leukocyte Lipoxygenase. In words: Human Leukocyte Lipoxygenase Assay (LDA-H). It is filed as biochemical. Particulars: for IC50: acetone-pentane powder enzyme, 234 nm, 24° C., 5 min preincubation, read-out: Concentration (M) for 50.0 % Inhibition, IC (LDAH); for % Inhibition (LDAH): Concentration 2.50 E -5 M. The method, boiled down: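 Enzyme from acetone-pentane powder of human buffy-coat leukocytes, extracted in 0.1M Tris pH 7.4. Compound preincubated 5 min with enzyme, then reaction started with arachidonic or linoleic acid (100 μM or 1.0 μM) and followed at 234 nm (conjugated diene) at 24° C. IC50 is molar concentration halving control rate.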

Take `CCCCCCCCCCc1ccc(NC(=O)C2CS(=O)(=O)c3ccccc3C2=O)cc1` (centres unmarked) [Example 60, N-(4-Decylphenyl)-3,4-dihydro-4-oxo-2H-1-benzoothiopyran-3-carboxamide, 1,1-dioxide]: the IC50 stood at 2.5e-05 M.
Turning to `O=C(Nc1ccc(CCc2ccccc2)cc1)C1CS(=O)(=O)c2ccccc2C1=O` (centres unmarked) [Example 16, 3,4-Dihydro-4-oxo-N-[(4-(2-phenyl)ethyl]-phenyl]-2H-1-benzothiopyran-3-carboxamide, 1,1-dioxide], the IC50 worked out at 5.1e-05 M.
`O=C(Nc1ccc(CCc2ccc(-c3ccccc3)cc2)cc1)C1CS(=O)(=O)c2ccccc2C1=O` (centres unmarked) [Example 46, N-[4-[2-([1,1'-biphenyl]-4-yl)ethyl]phenyl]-3,4-dihydro-4-oxo-2H-1-benzothiopyran-3-carboxamide, 1,1-dioxide]: the IC50 was found to be 1.1e-05 M.
Take `O=C(Nc1ccc(CCc2ccc(Cl)cc2)cc1)C1CS(=O)(=O)c2ccccc2C1=O` (centres unmarked) [Example 54, N-[4-[2-(4-Chlorophenyl)ethyl]phenyl]-3,4-dihydro-4-oxo-2H-1-benzothiopyran-3-carboxamide, 1,1-dioxide]: the IC50 was 3.5e-06 M.
For `O=C(Nc1ccc(CCc2ccc3ccccc3c2)cc1)C1=C(O)c2ccccc2S(=O)(=O)C1` [Example 51, 4-Hydroxy-N-[4-[2-(2-naphthalenyl)ethyl]phenyl]-2H-1-benzothiopyran-3-carboxamide, 1,1-dioxide], the “% Inhibition (LDAH)” value turned out to be 0.0%.
Take `COc1ccc(CCc2ccc(NC(=O)c3sc4ccccc4c3O)cc2)cc1OC` [Example 143, Benzo[b]thiophene-2-carboxamide, N-[4-[2-(3,4-dimethoxphenyl)ethyl]phenyl]-3-hydroxy]: the IC50 was 4.4e-06 M.
Still for that read-out and setting: the value for `COc1ccc(CCc2ccc(NC(=O)C3CS(=O)(=O)c4ccccc4C3=O)cc2)cc1` (centres unmarked) [Example 41] was 4.5e-05 M.
Consider `CCCCOc1ccc(CCc2ccc(NC(=O)C3CS(=O)(=O)c4ccccc4C3=O)cc2)cc1` (centres unmarked) [Example 48], for which the “% Inhibition (LDAH)” value was 0.0%.
